Source: patent US4239901A, “Pyrazol-1-ylphenylacetic acids” (Byk Gulden Lomberg Chemische Fabrik GmbH, priority 1976, dated 1980)
Where two headings read alike, the source gives them in different places.

How the values were obtained:
[1] = test system: carrageenin oedema of rat hind paw; assay: Inhibition of carrageenin oedema of rat hind paw; details: for ED40 / inhibition at 100 mg/kg: Rattus norvegicus; for ED40: po, read-out: Inhibition of carrageenin oedema of rat hind paw by 40% (=ED40) after single oral dose; for Therapeutic Quotient LD50/ED40: Table 2, LD50 mouse i.p. / ED40 rat oral; for inhibition at 100 mg/kg: read-out: oedema inhibition
Description: The influence of the compounds which were to be tested on carrageenin oedema of rat hind paw was determined as follows:
Female Sprague-Dawley rats (groups of, in each instance, 10 animals; weight of each animal 140-170 g) from which food (Altromin®R, water ad libitum) is withheld about 16 hours beforehand are each injected subplantarly in the right hind paw with 0.05 ml of a 1% strength carrageenin suspension 1 hour after oral administration of the compounds which are to be tested. The rats are kept at 24° C.
The determination of the paw volume of each rat (in each case, 2-3 individual measurements) is effected plethysmometrically before and 2 and 4 hours after oedema provocation.
As measure for the antiphlogistic effect there serves the average percentage oedema inhibition (i.e. the average from the measured values obtained 3 and 5 hours after administration of the substance).
The determination of the paw volume is effected plethysmometrically. Measuring principle: the liquid volume displaced by the rat paw is registered digitally via an electromechanical pressure converter (Statham P 23 V, 0-200 mm Hg).
The stated doses of the medicaments tested were administered in a liquid volume of 20 ml/kg.

[2] = test system: adjuvant arthritis in the rat (Mycobacterium butyricum); assay: Anti-arthritic effect (adjuvant arthritis); assay type: in vivo, rat (male Sprague-Dawley); details: Table 4, LD50 mouse i.p. / ED25 rat oral
Description: In imitation of the method described by NEWBOULD and PERRINE et al. [NEWBOULD, B. B.; Brit. […] Pharmacodyn. […] Antiphlogistic agents inhibit this swelling reaction.
Male Sprague-Dawley rats (150-190 g) are each injected intradermally into the tail root on day zero with 0.1 ml/animal of a 0.5% strength Myobact. butyrum/paraffin oil suspension. […] On the 17th day after administration of adjuvant, all positively-reacting animals (paw volume increase at least 30%) are selected and concentrated in groups of 10 animals with equal paw volume distribution.
The compounds to be tested are now administered on the following 5 days, that is to say from the 17th to the 21st day after administration of adjuvant, once daily orally in 10 ml/kg of liquid.
As measure for the anti-arthritic effect there serves the decrease of the paw swelling on the 21st day after the administration of adjuvant, referred in each case to the paw swelling of the control group (=100%); the paw volume is determined plethysmometrically.

[3] = test system: granulation tissue formation in the rat; details: Table 3; for Therapeutic Quotient LD50/ED20: LD50 mouse i.p. / ED20 rat oral
Description: Test procedure for the investigation of the influence of the compounds which are to be tested on granulation tissue formation after cotton-wool implantation in the rat (so-called cotton pellet method):
Closure of the skin cut is effected by means of clips.
On seven consecutive days the compounds which are to be tested (as sodium salt in aqueous solution) or the corresponding amount (5 ml/kg/day) of tap water (=control group) are administered orally daily.
On the eighth day the animals are killed, the cotton-wool granulomata are cautiously freed without cutting, i.e. preserving the fibrous capsule, dried (15 hours at 120° C.) and weighed. By deducting the weight component of the cotton-wool pellets the amount of newly formed granulation tissue is obtained.
As measure for the anti-proliferative effect of a compound there serves the percentage lessening of the average granuloma dry weight of a treated group (=16 granulomata) compared to the control group (=100%).

in vivo = details: mouse, ip
[4] = test system: pain reaction provoked in the rat through bending of an inflamed ankle joint; assay: Analgesic effect, pain reaction provoked through bending of an inflamed ankle joint (AgNO3 inflammation); details: for ED25: Rattus norvegicus, po, read-out: Analgesic effect ED25 (= dose which in 25% of the animals completely suppresses the pain reaction); for Therap. Quotient LD50/ED25: Table 5, LD50 mouse i.p. / ED25 rat oral, analgesic
Description: The influence of the compounds which were to be tested on the pain reaction provoked in the rat through bending of an inflamed tarsal joint (AgNO3 inflammation) was determined as follows:
In imitation of HOFFMEISTER et al [Arzneim.Forsch. […] The animals are kept at 24° C. and receive as food Altromin®R and water ad libitum. […] All the positively-reacting animals are concentrated in groups of 10 animals. The compounds which are to be tested are administered orally in a liquid volume of 20 ml/kg 1 hour before the AgNO3 application; the untreated control animals receive the corresponding amount of tap water.
Within 5 hours after administration of the substance the number of reacting animals is ascertained at hourly intervals.
As measure for the analgesic effect there serves the maximum % proportion of the protected animals within 5 hours after administration of the substance [referred to the number of reacting animals of the control group (=100%)]

mouse = details: for Lethal effect LD50 after single intraperitoneal administration to the mouse: Table 3, single i.p.; for LD50 after a single administration mouse: Table 4, single i.p.; for Toxicity after single intraperitoneal administration to the mouse LD50: Table 5, single i.p.; for Toxicity after single intraperitoneal administration in the mouse LD50: Table 6, single i.p.
yeast fever of the rat = assay: Antipyretic effect, yeast fever of the rat; assay type: in vivo, rat (female Sprague-Dawley); details: read-out: Antipyretic effect ED0.75 (dose which lowers the yeast fever of the rat by 0.75° C.)
Description: The antipyretic effect is determined from the influence of the compounds to be tested on the yeast fever of the rat.
In female Sprague-Dawley rats (in each series of experiments, 30 rats in groups of 5 animals; animal weight 170-200 g) a hyperthermia is produced through subcutaneous injection (neck) of 20 ml/kg of a 20% strength aqueous brewer's yeast suspension (brewers' yeast "Heliosan"/Hefereformwerk Radolfzell). 24 hours after the yeast injection, the body temperature is measured rectally at hourly intervals.
After a preliminary measurement the compounds which are to be tested are administered to the animals orally in a liquid volume of 5 ml/kg; a control group receives the corresponding amount of tap water. Food (Altromin®R, water ad libitum) was withheld from the rats 18 hours beforehand. The rats are kept at about 23° C.
As measure for the antipyretic effect there serves the maximum lowering of temperature (with reference to the temperature of the preliminary measurement, i.e. immediately before administration of the substance) in the course of 4 hours. The body temperature is measured with a Iastomed H (Braun electronic).

## O=C(O)Cc1ccc(-n2cc(Cl)cn2)c(Cl)c1 [IV, 3-chloro-4-(4-chloropyrazol-1-yl)phenylacetic acid]
[1]
  ED40: 2 mg/kg
  Therapeutic Quotient LD50/ED40: 230
[2]
  Therapeutic Quotient LD50/ED25: 657
[3]
  Therapeutic Quotient LD50/ED20: 23.0
  Inhibition of granulation tissue formation after subcutaneous cotton-wool implantation by 20% (=ED20) in the rat after 7-day oral administration: 20 mg/kg/die
In vivo
  LD50: 460 mg/kg
[4]
  ED25: 2.5 mg/kg
  Therap. Quotient LD50/ED25: 184
mouse
  Lethal effect LD50 after single intraperitoneal administration to the mouse: 460 mg/kg i.p.
  LD50 after a single administration mouse: 460 mg/kg i.p.
  Toxicity after single intraperitoneal administration to the mouse LD50: 460 mg/kg i.p.

## CC(C(=O)O)c1ccc(-n2cc(Cl)cn2)c(Cl)c1 (stereo not drawn) [I, 2-[3-chloro-4-(4-chloropyrazol-1-yl)phenyl]-propionic acid]
[1]
  ED40: 5 mg/kg
  Therapeutic Quotient LD50/ED40: 65
[2]
  Therapeutic Quotient LD50/ED25: 1625
[3]
  Therapeutic Quotient LD50/ED20: 108.3
  Inhibition of granulation tissue formation after subcutaneous cotton-wool implantation by 20% (=ED20) in the rat after 7-day oral administration: 3 mg/kg/die
Yeast fever of the rat; Table 6, rat, oral
  ED (0.75 degC): 3.5 mg/kg
In vivo
  LD50: 325 mg/kg
[4]
  ED25: 0.4 mg/kg
  Therap. Quotient LD50/ED25: 813
mouse
  Lethal effect LD50 after single intraperitoneal administration to the mouse: 325 mg/kg i.p.
  LD50 after a single administration mouse: 325 mg/kg i.p.
  Toxicity after single intraperitoneal administration to the mouse LD50: 325 mg/kg i.p.
  Toxicity after single intraperitoneal administration in the mouse LD50: 325 mg/kg i.p.

## O=C(O)Cc1ccc(-n2cc(Br)cn2)cc1 [III, 4-(4-bromopyrazol-1-yl)phenylacetic acid]
[1]
  ED40: 4 to 5 mg/kg
  Therapeutic Quotient LD50/ED40: 122
Yeast fever of the rat; Table 6, rat, oral
  ED (0.75 degC): 20 mg/kg
In vivo
  LD50: 550 mg/kg
[4]
  ED25: 1.2 mg/kg
  Therap. Quotient LD50/ED25: 458
mouse
  Toxicity after single intraperitoneal administration to the mouse LD50: 550 mg/kg i.p.
  Toxicity after single intraperitoneal administration in the mouse LD50: 550 mg/kg i.p.

## O=C(O)Cc1ccc(-n2cc(Cl)cn2)cc1 [II, 4-(4-chloropyrazol-1-yl)phenylacetic acid]
[1]
  ED40: 8 mg/kg
  Therapeutic Quotient LD50/ED40: 58
In vivo
  LD50: 460 mg/kg

## CC(C(=O)[O-])c1cc(Cl)c(-n2cccn2)cc1Cl.[Na+] (stereo not drawn)
In vivo
  LD50: 1050 mg/kg
[4]
  ED25: 2.5 mg/kg
  Therap. Quotient LD50/ED25: 420

## O=C(O)Cc1ccc(-c2cc(-c3ccccc3)n(-c3ccccc3)n2)cc1 [XII, 4-(1,5-diphenyl-pyrazol-3-yl)phenylacetic acid, reference compound]
[1]
  ED40: 63 mg/kg
  Therapeutic Quotient LD50/ED40: 3
In vivo
  LD50: 200 mg/kg

## CC(C(=O)O)c1cc(Cl)c(-n2cc(Br)cn2)cc1Cl (stereo not drawn) [VII, 2-[2,5-dichloro-4-(4-bromopyrazol-1-yl)phenyl]propionic acid]
In vivo
  LD50: 285 mg/kg
[4]
  ED25: 1.2 mg/kg
  Therap. Quotient LD50/ED25: 238

## CN1N=C(c2ccc(CC(=O)O)cc2)CC1c1ccccc1 (stereo not drawn) [XIII, 4-(1-methyl-5-phenyl-2-pyrazoline-3-yl)phenylacetic acid, reference compound]
[1]
  ED40: > 100 mg/kg
  inhibition at 100 mg/kg: 25%

## CC(C(=O)O)c1ccc(-n2cc(Br)cn2)c(Cl)c1 (stereo not drawn) [V, 2-[3-chloro-4-(4-bromopyrazol-1-yl)phenyl] acid]
[1]
  ED40: 2 mg/kg
  Therapeutic Quotient LD50/ED40: 163
[2]
  Therapeutic Quotient LD50/ED25: 1625
[3]
  Therapeutic Quotient LD50/ED20: ~ 32.5
  Inhibition of granulation tissue formation after subcutaneous cotton-wool implantation by 20% (=ED20) in the rat after 7-day oral administration: ~ 10 mg/kg/die
Yeast fever of the rat; Table 6, rat, oral
  ED (0.75 degC): 5 mg/kg
In vivo
  LD50: 325 mg/kg
[4]
  ED25: 0.8 mg/kg
  Therap. Quotient LD50/ED25: 406

## Cn1nc(-c2ccc(CC(=O)O)cc2)cc1-c1ccccc1 [XI, 4-(1-methyl-5-phenylpyrazol-3-yl)phenylacetic acid, reference compound]
[1]
  ED40: > 100 mg/kg
  inhibition at 100 mg/kg: 25%
  Therapeutic Quotient LD50/ED40: < 4
In vivo
  LD50: 430 mg/kg

## COc1ccc2c(c1)c(CC(=O)O)c(C)n2C(=O)c1ccc(Cl)cc1 [X, indomethacin, reference compound]
[1]
  ED40: 4 mg/kg
  Therapeutic Quotient LD50/ED40: 11
[2]
  Therapeutic Quotient LD50/ED25: 450
[3]
  Therapeutic Quotient LD50/ED20: 12.8
  Inhibition of granulation tissue formation after subcutaneous cotton-wool implantation by 20% (=ED20) in the rat after 7-day oral administration: 3-5 mg/kg/die
Yeast fever of the rat; po
  ED (0.75 degC): 2.5 mg/kg
In vivo
  LD50: 45 mg/kg
[4]
  ED25: 0.3 mg/kg
  Therap. Quotient LD50/ED25: 150
mouse
  Lethal effect LD50 after single intraperitoneal administration to the mouse: 45 mg/kg i.p.
  LD50 after a single administration mouse: 45 mg/kg i.p.
  Toxicity after single intraperitoneal administration to the mouse LD50: 45 mg/kg i.p.
  Toxicity after single intraperitoneal administration in the mouse LD50: 45 mg/kg i.p.

## O=C(O)Cc1ccc(-n2cccn2)cc1 [VIII, 4-(pyrazol-1-yl)phenylacetic acid]
[1]
  ED40: 8 mg/kg
  Therapeutic Quotient LD50/ED40: 150
Yeast fever of the rat; Table 6, rat, oral
  ED (0.75 degC): 32 mg/kg
In vivo
  LD50: 1200 mg/kg
mouse
  Toxicity after single intraperitoneal administration in the mouse LD50: 1200 mg/kg i.p.

## CCCCC1C(=O)N(c2ccccc2)N(c2ccccc2)C1=O [IX, phenylbutazone, reference compound]
[1]
  ED40: 40 mg/kg
[3]
  Inhibition of granulation tissue formation after subcutaneous cotton-wool implantation by 20% (=ED20) in the rat after 7-day oral administration: 100 mg/kg/die
Yeast fever of the rat; Table 6, rat, oral
  ED (0.75 degC): 15 mg/kg
[4]
  ED25: 2 mg/kg
